Results taken from US10294236B2, “Compounds as rearranged during transfection (RET) inhibitors” (GLAXOSMITHKLINE INTELLECTUAL PROPERTY DEVELOPMENT LIMITED, priority 2014, dated 2019).
Structures can show the parent of a compound that is named as a salt.

molecular target: T1, Human RET kinase cytoplasmic domain (Homo sapiens, UniProt P07949); assay: RET kinase enzymatic assay; type: biochemical
T1 construct: made in house
T1 sequence (P07949 658-1114): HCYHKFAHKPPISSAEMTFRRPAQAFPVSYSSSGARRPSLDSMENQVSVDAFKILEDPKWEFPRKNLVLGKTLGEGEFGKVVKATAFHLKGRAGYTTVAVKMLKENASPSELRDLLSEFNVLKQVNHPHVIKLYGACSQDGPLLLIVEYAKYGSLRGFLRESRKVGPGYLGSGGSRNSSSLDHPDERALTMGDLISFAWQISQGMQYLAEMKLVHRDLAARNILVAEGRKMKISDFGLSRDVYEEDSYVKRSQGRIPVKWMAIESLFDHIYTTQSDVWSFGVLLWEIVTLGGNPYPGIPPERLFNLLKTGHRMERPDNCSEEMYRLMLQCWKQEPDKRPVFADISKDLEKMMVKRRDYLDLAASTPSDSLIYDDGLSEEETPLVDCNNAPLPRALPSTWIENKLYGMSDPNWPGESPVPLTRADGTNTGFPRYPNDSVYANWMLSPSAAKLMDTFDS
Method in brief: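 GST-RET, 0.2 nM in 2× enzyme mix (HEPES, CHAPS, BSA, DTT), preincubated with inhibitor 30 min at 23 °C. Reaction for 1 h at 23 °C after adding 2× substrate mix: 20 μM ATP, 20 mM MgCl2, 1 μM biotinylated peptide. Single wells per concentration; IC50 from sigmoidal dose-response fit.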

Row | Structure (SMILES) | IC50 [nM]
1 | CCOc1cc(-c2ncc(NC(=O)Nc3cc(C(=O)NCCN(C)C)cc(C(F)(F)F)c3)c(C)n2)c[nH]c1=O [Example 91] | < 100
2 | CCOc1cc(-c2ccc(NC(=O)Nc3ccc(OC4(C)COC4)c(C(F)(F)F)c3)cn2)c[nH]c1=O [Example 106] | < 100
3 | CCOc1cc(-c2ccc(NC(=O)Nc3cc(-n4cncn4)cc(C(F)(F)F)c3)c(F)c2)c[nH]c1=O [Example 72, 1-(3-(1H-1,2,4-Triazol-1-yl)-5-(trifluoromethyl)phenyl)-3-(4-(5-ethoxy-6-oxo-1,6-dihydropyridin-3-yl)-2-fluorophenyl)urea hydrochloride] | < 100
4 | CCOc1cc(Oc2ccc(NC(=O)Nc3ccc(OC4(C)COC4)c(C(F)(F)F)c3)cn2)c[nH]c1=O [Example 101] | < 100
5 | CCOc1cc(=O)[nH]cc1-c1ncc(NC(=O)Nc2ccc(C(C)(C)O)c(C(F)(F)F)c2)c(C)n1 [Example 51, 1-(2-(4-Ethoxy-6-oxo-1,6-dihydropyridin-3-yl)-4-methylpyrimidin-5-yl)-3-(4-(2-hydroxypropan-2-yl)-3-(trifluoromethyl)phenyl)urea] | < 100
6 | CCOc1cc(-c2ccc(NC(=O)Nc3ccc(OC(C)(C)C#N)c(C(F)(F)F)c3)c(F)c2)c[nH]c1=O [Example 83] | < 100
7 | CCOc1cc(-c2cnc(NC(=O)Nc3ccc(CC(C)(C)CO)c(C(F)(F)F)c3)c(C)c2)c[nH]c1=O [Example 9, 1-(5′-Ethoxy-5-methyl-6′-oxo-1′,6′-dihydro-[3,3′-bipyridin]-6-yl)-3-(4-(3-hydroxy-2,2-dimethylpropyl)-3-(trifluoromethyl)phenyl)urea] | < 100
8 | CCOc1cc(=O)[nH]cc1-c1ncc(NC(=O)Nc2cccc(C(F)(F)F)c2)c(C)n1 [Example 38, 1-(2-(4-Ethoxy-6-oxo-1,6-dihydropyridin-3-yl)-4-methylpyrimidin-5-yl)-3-(3-(trifluoromethyl)phenyl)urea] | < 100
9 | CCOc1ccc(NC(=O)Nc2ccc(-c3c[nH]c(=O)c4c3CCC4)cc2F)cc1C(F)(F)F [Example 3, 1-(4-Ethoxy-3-(trifluoromethyl)phenyl)-3-(2-fluoro-4-(1-oxo-2,5,6,7-tetrahydro-1H-cyclopenta[c]pyridin-4-yl)phenyl)urea] | < 100
10 | CCOc1nc(=O)[nH]cc1-c1ccc(NC(=O)Nc2ccc(OC3(C)COC3)c(C(F)(F)F)c2)c(F)c1 [Example 34, 1-(4-(4-Ethoxy-2-oxo-1,2-dihydropyrimidin-5-yl)-2-fluorophenyl)-3-(4-((3-methyloxetan-3-yl)oxy)-3-(trifluoromethyl)phenyl)urea] | < 100

Second part, the compound after the results:

Row | IC50 [nM] | Structure (SMILES)
11 | < 100 | COCCOc1cc(=O)[nH]cc1-c1ncc(NC(=O)Nc2cc(C(=O)NCCN(C)C)cc(C(F)(F)F)c2)c(C)n1 [Example 187, N-(2-(dimethylamino)ethyl)-3-(3-(2-(4-(2-methoxyethoxy)-6-oxo-1,6-dihydropyridin-3-yl)-4-methylpyrimidin-5-yl)ureido)-5-(trifluoromethyl)benzamide]
12 | < 100 | COCCOc1cc(-c2ncc(NC(=O)Nc3cc(C(F)(F)F)c(CN4CCN(C)CC4)cc3F)c(C)n2)c[nH]c1=O [Example 184, 1-(2-Fluoro-4-((4-methylpiperazin-1-yl)methyl)-5-(trifluoromethyl)-phenyl)-3-(2-(5-(2-methoxyethoxy)-6-oxo-1,6-dihydropyridin-3-yl)-4-methylpyrimidin-5-yl)urea trihydrochloride]
13 | < 100 | CCOc1cc(-c2ccc(NC(=O)Nc3ccc(OC4(C)CCC4)c(C(F)(F)F)c3)c(F)c2)c[nH]c1=O [Example 149]
14 | < 100 | Cc1cc(=O)[nH]cc1-c1ccc(NC(=O)Nc2ccc(OC3(C)COC3)c(C(F)(F)F)c2)c(F)c1 [Example 168]
15 | < 100 | CCOc1cc(-c2ccc(NC(=O)Nc3ccc(OC4(C)CCOC4)c(C(F)(F)F)c3)c(F)c2)c[nH]c1=O (centres unmarked) [Example 167]
16 | 500 to 10000 | CCOc1cc(-c2ccc(NC(=O)Nc3ccc(OC4(C)COC4)c(C(F)(F)F)c3)c(OC(C)C)n2)c[nH]c1=O [Example 115]
17 | < 100 | CCOc1cc(-c2ccc(NC(=O)Nc3ccc(OC4(C)COC4)c(C(F)(F)F)c3)c(F)c2)c[nH]c1=O [Example 130]
